From US10688113B2 (priority 2015, dated 2020)

Key:
[1] = test system: corneal mechanical sensitivity (allodynia); experiment: Corneal mechanical sensitivity (allodynia), Von Frey filaments, trephine-injured cornea plus capsaicin; format: in vivo, male C57BL/6 mice; conditions: mice, 10 mM topical twice-daily for 5 days, capsaicin 100 μM, vs 1×PBS
Experimental: During this test, de-epithelialization of the corneal epithelium of the left eye of the mouse is carried out using a 1.5 mm diameter trephine. This surgery is carried out under a surgical microscope. This procedure lasts at most 3 minutes per animal. The depth and surface area of corneal de-epithelialization are standardized and then evaluated by a slit-lamp examination. The advantage of this surgical tool is standardization of the injury. The 8-week-old male C57BL/6 mice thus treated receive a twice-daily treatment for 5 days of the compound of formula I or PBS before the application of capsaicin.
Additional pain is induced by capsaicin (100 μM). Corneal mechanical sensitivity (allodynia) was measured using Von Frey filaments, 5 days after treatment, on mice treated with compound 1 (10 mM), with compound 2 (10 mM) or, for the control group, with 1×PBS (n=5 animals per group). The results obtained are presented in FIG. 6 (y-axis: weight of the Von Frey filament in grams). The histogram on the left (black) represents the response of mice treated with PBS, the histogram in the middle represents the response of mice treated with compound 1 and the histogram on the right represents the response of mice treated with compound 2.

[2] = test system: capsaicin-induced ocular pain (33 mM); experiment: Capsaicin-induced ocular pain, acute treatment (single instillation 15 min before capsaicin); format: in vivo, New Zealand white rabbits; conditions: rabbit, single instillation of 10 mM, 15 min before capsaicin 33 mM; compared with capsazepine 5 mM
Experimental: In order to study the pharmacological activity of the present invention in the case of ocular pain, the compounds of formula (I) were tested using the model of capsaicin-induced ocular pain. In this model, previously used in the literature (Gonzalez et al. (1993) Invest. Ophthalmol. Vis. Sci., 34(12), 3329-3335), in adult rabbits, the number of lid-squeezing movements, the degree of palpebral opening, miotic response and conjunctival vasodilation evoked by a bilateral instillation of 30 μL of capsaicin (33 mM) were measured at different times after administration of the drug. To that end, the responses to this test in eyes pre-treated with various calcium antagonists (diltiazem, verapamil or nifedipine) were compared with those that had received only vehicle.
The procedure and the timing were as follows:
Evaluation of corneal pain by observing conjunctival hyperaemia after pain induction (a single instillation of 1% capsaicin (33 mM) in the right eye) in albino rabbits. Pre-treatment with the compound to be tested, 15 min before capsaicin instillation.

[3] = test system: capsaicin-induced ocular pain (100 μM); experiment: Capsaicin test (100 μM) after chronic twice-daily treatment on trephine-injured cornea; format: in vivo, male C57BL/6 mice; conditions: mice, trephine corneal injury, 10 mM topical twice-daily for 4 days, capsaicin 100 μM 15 min after last instillation; vs PBS
Experimental: The compounds of formula I of the present invention were also tested, in 8-week-old male C57BL/6 mice (JANVIER LABS), using a capsaicin test (100 μM) after twice-daily treatment for 5 days of the compound of formula I on cornea injured beforehand (with a 1.5 mm diameter trephine).
Analgesic effect of compound 2 in the model of capsaicin-induced ocular pain (100 μM). A corneal epithelial injury was made on the right cornea of male C57BL/6 mice (JANVIER LABS) using a 1.5 mm diameter trephine. Once the animals were operated on, a twice-daily topical treatment, for 4 days, is carried out with 1×PBS (5 animals per group) or with 10 mM compound 2 (5 animals per group). On day 4, 15 minutes after the last instillation, 100 μM capsaicin is instilled and the behavioural analysis is performed. The results obtained corresponding to the trephine injury alone before capsaicin are shown in FIG. 5 (y-axis: palpebral closure time in seconds).
During this test, de-epithelialization of the corneal epithelium of the left eye of the mouse is carried out using a 1.5 mm diameter trephine. This surgery is carried out under a surgical microscope. This procedure lasts at most 3 minutes per animal. The depth and surface area of corneal de-epithelialization are standardized and then evaluated by a slit-lamp examination. The advantage of this surgical tool is standardization of the injury. […]

[4] = test system: mechanical allodynia induced by 0.2% BAC; experiment: Keratitis induced by chronic instillation of 0.2% benzalkonium chloride (BAC), Von Frey filaments; format: in vivo, male C57BL/6 mice; conditions: mice, 0.2% BAC for 6 days then 10 mM twice-daily for 5 days; vs 1×PBS
Source text: Chronic instillation of 0.2% benzalkonium chloride induces chronic inflammation of the cornea with generation of ocular pain (Launay et al. (2016) Neurobiol. Dis., 88 16-28). This model was used as a model of chemical keratitis.
Study of corneal sensitivity in mice treated twice-daily with compound 2 for 5 days first treated with 0.2% BAC for 6 days. The corneal mechanical sensitivity of male C57BL/6 mice, treated with 0.2% BAC for 6 days, then twice-daily with compound 2 for 5 days, was evaluated at various times using Von Frey filaments, compared with a control group receiving twice-daily 1×PBS (n=10 animals per group). The use of Von Frey filaments (applied to the centre of the cornea of a conscious animal) is perfectly feasible for measuring corneal mechanical allodynia in mice. In the context of dry eye, the technique produces mechanical allodynia in the patient: the simple fact of closing the eyelid induces a painful sensation. Lastly, this behavioural test is most like the one used in human clinical practice (Cochet-Bonnet) to measure corneal mechanical sensitivity.
The results obtained are presented in FIG. 7 (y-axis: weight of the Von Frey filament in grams). The histogram on the left represents the response of mice treated with PBS, while the histogram on the right represents the response of mice treated with compound 2.

[5] = test system: LPS-induced bacterial keratitis; experiment: LPS-induced inflammation model (corneal scratch, LPS 50 μg) followed by capsaicin instillation; format: in vivo; conditions: mice, LPS 50 μg days 1 and 4, 10 mM twice-daily for 5 days, capsaicin 100 μM on day 5, vs PBS
Experimental: Bacterial lipopolysaccharide (LPS, endotoxin) is a potent stimulator of inflammatory responses and contributes to microbial keratitis and to corneal ulcers (Khatri et al. 2002 Invest. Ophthal. Vis. Sci., 43 2278-2284).
Effect of compound 2 in a model of LPS-induced inflammation (50 μg). A corneal epithelial injury (scratch) is made with a trephine (1.5 mm diameter) in mice, followed by topical treatment with LPS (50 μg, two administrations on days 1 and 4) then twice-daily chronic treatment for 5 days with 1×PBS (control group) or with compound 2 (10 mM) (n=6 animals per group), followed by capsaicin instillation (100 μM) on day 5. The results obtained are presented in FIG. 8 (y-axis: palpebral closure time in seconds). The histogram on the left represents the response of mice treated with PBS, while the histogram on the right represents the response of mice treated with compound 2.

[6] = test system: capsaicin-induced ocular pain; conditions: rabbits, 1 to 28 mM administered 15 minutes before application of capsaicin; cited from earlier work
[7] = test system: contractile responses to capsaicin; conditions: morphine 5×100 μM; cited from earlier work
[8] = test system: capsaicin-induced blinking; conditions: cited from earlier work

SMILES: CC(OC(=O)N[C@@H](C)P(=O)([O-])C[C@@H](Cc1ccc(-c2ccccc2)cc1)C(=O)N[C@@H](C)C(=O)[O-])OC(=O)C(C)C.[Na+].[Na+] (stereo partly shown) [compound 2]
- mechanical sensitivity measured with Von Frey filaments [1]: significant decrease
- analgesic effect on conjunctival hyperaemia following pain induction by capsaicin [2]: superior to the reference product, capsazepine
- analgesic effect on palpebral opening following pain induction by capsaicin [2]: superior to the reference product, capsazepine
- analgesic effect (cumulative palpebral closure time) in the capsaicin test [3]: very significant analgesic effect (shorter cumulative palpebral closure time)
- mechanical allodynia induced by 0.2% BAC (Von Frey filaments) [4]: significantly reduced (higher sensitivity threshold)
- analgesic effect (cumulative palpebral closure time) in LPS-induced keratitis [5]: very significant analgesic effect (shorter cumulative palpebral closure time)

SMILES: C[C@H](NC(=O)[C@H](Cc1ccc(-c2ccccc2)cc1)CP(=O)([O-])[C@H](C)N)C(=O)[O-].[Na+].[Na+] [compound 1]
- mechanical sensitivity measured with Von Frey filaments [1]: significant decrease
- analgesic effect on conjunctival hyperaemia following pain induction by capsaicin [2]: superior to the reference product, capsazepine
- analgesic effect on palpebral opening following pain induction by capsaicin [2]: superior to the reference product, capsazepine

SMILES: COc1ccc([C@@H]2Sc3ccccc3N(CCN(C)C)C(=O)[C@@H]2OC(C)=O)cc1 [diltiazem]
- capsaicin-induced scratching movements, conjunctival hyperaemia, eye closure and elevated aqueous protein concentration [6]: significantly decreased

SMILES: CN1CC[C@]23c4c5ccc(O)c4O[C@H]2[C@@H](O)C=C[C@H]3[C@H]1C5 [morphine]
- contractile responses to capsaicin [7]: partially inhibited
- blinking, healthy non-inflamed rat cornea ([8]; applied to healthy, non-inflamed rat cornea): no effect on blinking
- capsaicin-induced blinking ([8]; rats, topical application of a drop, 5 μM): attenuates capsaicin-induced blinking in a concentration-dependent manner
